The values that follow come from US20240417403A1, “CRYSTALLINE FORMS OF QUINAZOLINE DERIVATIVES, PREPARATION, COMPOSITION AND USE THEREOF” (Hoffmann-La Roche Inc., priority 2021, published 2024).

Molecules are shown by their SMILES. Values after ≈ are worked out from the molar mass of the structure shown. Marks after values point to notes of the source that are not given here.

Common to all, as to assay type: physicochemical
Data set [1] is described as follows: Solid state stability, 40° C./75% RH/open for 1 month (XRPD, HPLC purity). The settings on record: 40° C., 75% RH, open. The method, then:
(§1) An Agilent 1260 HPLC instrument was utilized and detailed chromatographic conditions for purity and solubility analysis were listed in Table 6.
To evaluate the solid state stability of the selected forms (amorphous freebase, Freebase Type F, Fumarate Type A and Fumarate Type B) samples were stored under 40° C./75% RH/open for 1 month. Stability samples were characterized by XRPD to check any solid form change and by HPLC to check purity change.

A short description of data set [2]: Equilibrium solubility in H2O. The following applies: 37° C., stirred 24 hours. The procedure:
as §1
About 5˜10 mg of solids were suspended in H2O to get a mixture. The suspensions were stirred for 24 hours, followed by centrifugation and filtration to obtain supernatants for HPLC test.

The next data set is described as follows: Crystal habit by PLM. The text has this: The PLM images were captured with Carl Zeiss Axio Scope. A1 microscope at RT.
PLM was used to observe the crystal habit of the particles (amorphous freebase and Fumarate Type A).

A short description of data set [3]: Bulk density, tap density and Carr index (flowability and compressibility). The settings on record: listed as Freebase amorphous. The method, then:
Bulk density was determined by adding appropriate amount (m) of material into a 5 mL graduate cylinder and recording its apparent volume (v0). The bulk density was obtained by dividing the amount of material by its apparent volume of the unsettled material (ρ0=m/v0). For tap density, the cylinder was then tapped for 200 times. The tap density was then calculated by dividing the amount of material by its final tapped volume (ρ1=m/v1). Carr index=(ρ1−ρ0)/ρ1.
(§2) The results of amorphous freebase, Freebase Type F, Fumarate Type B and Fumarate Type E for flowability and compressibility were summarized in Table 30. Generally, powders with smaller Karl index would show better compressibility and flowability. And powders with smaller angle of repose would show better flowability.

Data set [4] can be described thus: Kinetic solubility in FaSSIF. The settings on record: FaSSIF, 37 °C, thermodynamic from solid. The method, then: as §1
Kinetic solubility of amorphous freebase and Fumarate Type B/E was measured in FaSSIF to evaluate the solubility. […] After centrifugation, supernatants were collected for HPLC tests.

The nature of data set [5]: TGA and DSC/mDSC thermal analysis (characterization of forms). The settings on record: for TGA weight loss (%, temp.): to 150° C. The procedure:
In salt screening and evaluation and in polymorph study, TGA was performed using a TA Q500, TA Q5000 or Discovery 5500 TGA from TA Instruments. DSC or mDSC was performed using a TA Q200/Q2000 or Discovery 2500 DSC from TA Instruments.

Data set [6] can be described thus: Equilibrium solubility in pH 4.5 buffer. The following applies: 37° C., stirred 24 hours. The method, then:
as §1
About 5˜10 mg of solids were suspended in pH 4.5 buffer to get a mixture. The suspensions were stirred for 24 hours, followed by centrifugation and filtration to obtain supernatants for HPLC test.

Data set [7] is described as follows: Equilibrium solubility in pH 6.8 buffer. The settings on record: 37° C., stirred 24 hours. The method, then: as §1
About 5˜10 mg of solids were suspended in pH 6.8 buffer to get a mixture. The suspensions were stirred for 24 hours, followed by centrifugation and filtration to obtain supernatants for HPLC test.

Another data set in a line: Hygroscopicity by DVS. The procedure:
DVS is measured via a SMS (Surface Measurement Systems) DVS Intrinsic. The relative humidity at 25° C. is calibrated against deliquescence point of LiCl, Mg(NO3)2 and KCl.
DVS isotherm plot was collected at 25° C. to investigate the selected solid forms stability as a function of humidity. Compared with amorphous freebase, the hygroscopicity of Freebase Type B, Fumarate Type A, Fumarate Type B and Fumarate Type E was lower under 80% RH/25° C.

A short description of data set [8]: Angle of repose (flowability). The settings on record: listed as Freebase amorphous.
From the text: Form the angle of repose on a fixed base with a retaining lip to retain a layer of powder on the base. Carefully build up a symmetrical cone of powder. Determine the angle of repose by measuring the height (h) and base radius (r) of the cone of powder and calculating the angle of repose a from the following equation α=tan^−1(h/r).
as §2

Data set [9] in a line: Contact angle against water (wettability). The following applies: listed as Freebase amorphous. The procedure: The wettability of the solid forms was evaluated by the contact angle against water.
Data set [10] can be described thus: Mechanical stability (XRPD form change after grinding and tableting). The procedure: Mechanical stability of the solid forms was evaluated by monitoring the XRPD form change after grinding (˜5 min) and tableting (˜234 Mpa).
A short description of data set [11]: Slurry competition (interconversion of free base forms at different water activity). The following applies: slurry at 24 ±3° C. The method, then: Slurry competition experiments were performed to study the interconversion relationship between Freebase Type B and Freebase Type C. […] The inter-conversion relationship among anhydrate Freebase Type B and hydrates Type C/F/G was further investigated under different water activities at RT. the saturated solution of Freebase Type B was obtained via slurry of Freebase Type B at RT overnight in corresponding solvent systems. A mixture of Freebase Type B+C+F+G was added into corresponding saturated solution of Freebase Type B to form suspensions. The suspensions were sampled for XRPD after being stirred for four days at a speed of 750 rpm under RT.

Broadly, the solubility is the dissolved amount per volume that the medium holds. The low end stands for a poorly soluble substance, the high end for a readily soluble substance. Turning to `COc1ccc2ncnc(Nc3ccc(Oc4cc5ncnn5cn4)c(C)c3)c2c1O[C@@H]1CCN(C)CC1(F)F` [amorphous freebase, (R)-N-(4-([1,2,4]triazolo[1,5-c]pyrimidin-7-yloxy)-3-methylphenyl)-5-((3,3-difluoro-1-methylpiperidin-4-yl)oxy)-6-methoxyquinazolin-4-amine], the “Form Change” value in data set [1] (by XRPD) is “No”. Also, the “Purity/Initial by HPLC area %” value in [1] (listed as Freebase amorphous) was 99.2%. Also, the “Solubility in H2O” value in [2] was determined as 160 µg/mL (≈ 292 µM). Moreover, in the data set “Crystal habit by PLM”, the “Crystal habit of the particles” value is on record as “irregular-shaped particles without defined boundary”. Besides, the Carr index in data set [3] ((ρ1−ρ0)/ρ1) was found to be 43.8%. Also, the Bulk density in [3] is 0.23 g/mL. This molecule had a Tapped density in data set [3] (tapped 200 times) of 0.40 g/mL. Moreover, in data set [4] (timepoint 1 h), the solubility at 1 h turned out to be 280 µg/mL (≈ 510 µM). In addition, the solubility at 2 h in data set [4] (timepoint 2 h) came out at 270 µg/mL (≈ 492 µM). In data set [4] (timepoint 24 h), this molecule yielded a solubility at 24 h of 260 µg/mL (≈ 474 µM). For the same molecule, the “Tg, middle temperature” value in data set [5] (amorphous free base, starred value in DSC column) is given as 58.7* ° C. The “TGA weight loss (%, temp.)” value in data set [5] (free base forms) is 1.9 (to 150° C.) %. The “Solubility in pH 4.5 buffer” value in data set [6] worked out at 0.18 mg/mL. In addition, the “Solubility in pH 6.8 buffer” value in data set [7] was found to be 0.15 mg/mL. Also, in the data set “Hygroscopicity by DVS” (listed as Freebase amorphous), the “Weight change at 80% RH/25° C. by DVS” value amounted to 4.2%. In data set [8], this molecule registered an Angle of repose of 39.9°. This molecule also showed a Contact angle in data set [9] of 37.2°.

On to `COc1ccc2ncnc(Nc3ccc(Oc4cc5ncnn5cn4)c(C)c3)c2c1O[C@@H]1CCN(C)CC1(F)F` [Freebase Type B, (R)-N-(4-([1,2,4]triazolo[1,5-c]pyrimidin-7-yloxy)-3-methylphenyl)-5-((3,3-difluoro-1-methylpiperidin-4-yl)oxy)-6-methoxyquinazolin-4-amine], for which the “DSC endotherm (° C., peak)” value in [5] (free base forms, peak) was 169.4 °C. Also, in data set [5] (free base forms), the “TGA weight loss (%, temp.)” value is given as 3.5 (to 150° C.) %. Besides, the “Solubility in pH 4.5 buffer” value in data set [6] is 0.3 mg/mL. In addition, in the data set “Hygroscopicity by DVS”, the “Hygroscopicity (in words)” value was “slightly hygroscopic” and the “Weight change at 80% RH/25° C. by DVS” value amounted to 0.2%. Moreover, the “XRPD form change after grinding” value in data set [10] (grinding ~5 min) is on record as “No”. Further, the “XRPD form change after tableting” value in data set [10] (tableting ~234 Mpa) was “No”. In data set [11], the “Critical water activity between Freebase Type B and Type C” value was 0.8-1.
